The source made the active and inactive calls. The rule behind the calls is not given here.

Assay [1] can be described thus: Binding affinity to 5'-Biotinylated pre-let-7f-2-loop-mt RNA (unknown origin) at 25 uM by SPR analysis.
Assay [2] in a line: Binding affinity to 5'-Biotinylated pre-let-7f-2-loop-mt RNA (unknown origin) by SPR analysis.
The nature of assay [3]: Binding affinity to R1-RNA (unknown origin) by SPR analysis.
Assay [4] can be described thus: Binding affinity to R2-RNA (unknown origin) by SPR analysis.
Assay [5] can be described thus: Binding affinity to R1-RNA internal loop (unknown origin) by SPR analysis.
Assay [6] can be described thus: Binding affinity to R1-RNA hairpin loop (unknown origin) by SPR analysis.
A short description of assay [7]: Binding affinity to R1-RNA internal loop mutant1 (unknown origin) by SPR analysis.
Assay [8] in a line: Binding affinity to R1-RNA internal loop mutant2 (unknown origin) by SPR analysis.
The nature of assay [9]: Binding affinity to R1-RNA internal loop mutant3 (unknown origin) by SPR analysis.
Assay [10] can be described thus: Binding affinity to R1-RNA internal loop mutant4 (unknown origin) by SPR analysis.
Assay [11] can be described thus: Binding affinity to 5'-Biotinylated pre-let-7f-2 RNA (unknown origin) by SPR analysis.

With `CC(C)NC(=O)c1ccncc1NC(=O)Nc1nn(C)c2nc(N3CCC(N(C)C)C3)ncc12` (configuration not stated), the result in assay [1] was Active.

`CC(C)NC(=O)c1ccncc1NC(=O)Nc1nn(C)c2nc(Cl)ncc12`: in assay [2], the Kd is 17.8 µM. Further, the result in assay [1] was Active.

Take `CC(C)NC(=O)c1ccncc1NC(=O)Nc1nn(C)c2nc(N3CCCC3)ncc12`: the outcome in assay [2] was inactive.

Turning to `Cn1nc(NC(=O)Nc2cnccc2C(=O)N[C@@H](CO)CCCCN)c2cnc(N3CC(F)(F)C(F)(F)C3)nc21`, the result in assay [3], in [5], in assay [2] and in [1] was Active. The result in [4], in assay [6], in assay [7], in [8], in assay [9] and in [10] was inactive. Moreover, the result in assay [11] was inactive.

For `COCC1CCN(c2ncc3c(NC(=O)Nc4cnccc4C(=O)NC(C)C)nn(C)c3n2)C1` (configuration not stated), the outcome in assay [2] was inactive.

`CC(C)NC(=O)c1ccncc1NC(=O)Nc1nn(C)c2nc(N3CCC(CN(C)C)C3)ncc12` (configuration not stated): the result in [1] was Active.

Values taken from ChEMBL document CHEMBL4706713, “Speeding drug discovery targeting RNAs: An iterative "RNA selection-compounds screening cycle" for exploring RNA-small molecule pairs” (Bioorg Med Chem, 2021).
